For assay [1], the target named is RTA depurination activity on yeast ribosomes (Ricinus communis, UniProt P02879). The assay is described as follows: biochemical. In kind it is biochemical. The note with it: for IC50: Yeast Ribosome IC50.
In assay [2] the target is RTA depurination activity on rat liver ribosomes (Ricinus communis, UniProt P02879). The assay is described as follows: biochemical. In kind it is biochemical.
Assay [3] addresses RTA–yeast ribosome interaction (Ricinus communis, UniProt P02879). It is filed as binding.

Several values for one entry are separate records, joined by “and”; a condition that tells them apart may be missing. Equal entries are not always repeated. Residues, ends and D or L forms follow the SMILES beside them. No end group written: not given here.

In general, IC50 refers to the concentration at which inhibition is half-maximal. Low values mean higher potency, high ones lower potency. In assay [1], `CC(C)C[C@H](NC(=O)CN)C(=O)N[C@@H](Cc1ccccc1)C(=O)N[C@@H](CC(=O)O)C(=O)O` [P4, G112LFD115] (H-GLFD-OH) yielded a half-inhibitory concentration (IC50) of 102 ± 45 µM.
As to DDDMGFGLFD [P10], the concentration for half-maximal inhibition (IC50) in assay [2] worked out at 83 ± 18 µM; in assay [1] it was 7.9 ± 1.7 µM.
In the same order, the values of DDMGFGLFD [P9] are 142 ± 61 µM and 15 ± 1.5 µM.
The matching figures for DMGFGLFD [P8, D108MGFGLFD115]: 267 ± 80 µM and 23 ± 4.4 µM.
In the case of FGLFD [P5, F111GLFD115], in assay [1], inhibition was half-maximal at 121 ± 44 µM (IC50).
In turn, GFGLFD [P6, G110FGLFD115] gave an IC50 in assay [1] of 63 ± 13 µM. Also, the “inhibition of ribosome binding to RTA” value in assay [3] is listed as below 100%.
In assay [1], MGFGLFD [P7, M109GFGLFD115] displayed an IC50 of 34 ± 9.5 µM.
Consider SDDDMGFGLFD [P11], for which, in assay [2], the IC50 amounted to 30.8 ± 6.3 µM; the “Imax (maximal inhibition), rat ribosome” value was 90% and 89.4 ± 4.2%. In addition, in assay [1], the “Imax (maximal inhibition), yeast ribosome” value was 90% and 89.7 ± 3.0%; the IC50 is 5 µM and 4.7 µM.

The values above are taken from PMC6162817 (Toxins, 2018).
